Test results reported in patent US20050054006A1, “Combinatorial fluorescent library based on the styryl scaffold” (New York University, priority 2003, published 2005).
Entries after “also recorded” stand apart in the source; their conditions may differ.

Experiments:
[1] = system: UACC-62 human melanoma cells; assay: Organelle localization in live cells by fluorescence microscopy; settings: live UACC-62 cells, fluorescence microscope λex=405, 490, 570 nm; λem>510 nm
[2] = Fluorescence excitation/emission of the styryl dye library compounds; type: physicochemical

SMILES | LOCALIZATION [1] | EM(nm) ([2]; EX/EM peak no. 1) | EX(nm) ([2]; EX/EM peak no. 1) | EM(nm) ([2]; EX/EM peak no. 2) | EX(nm) ([2]; EX/EM peak no. 2)
COc1ccc(C=Cc2ccc3ccccc3[n+]2C)cc1O.[I-] [Compound H15] | MITO | 610-620 nm | 420 nm |  | 
Cc1ccnc(-c2cc(C=Cc3ccc(OCc4ccccc4)c(OCc4ccccc4)c3)cc[n+]2C)c1.[I-] [Compound J12] | VESICLE | 560 nm | 350-470 nm |  | 
C[n+]1ccc(/C=C/c2cccc([N+](=O)[O-])c2)c2ccccc21.[I-] [Compound G21] | MITO | 670 nm | 450-550 nm |  | 
CN(C)c1ccc(C=Cc2cc[n+](C)cc2)c2ccccc12.[I-] [Compound A27] | CYTO | 640 nm | 450 nm |  | 
COc1ccc2c(ccc(C=Cc3ccccc3[N+](=O)[O-])[n+]2C)c1.[I-] [Compound I20] | NUCLEOLI | 620 nm | 420(broad) nm |  | 
CN(C)c1ccc(C=Cc2cccc[n+]2C)cc1.[I-] [Compound C19] | MITO | 580 nm | 460 (broad) nm |  | 
CC(=O)Nc1ccc(C=Cc2ccc3ccccc3[n+]2C)cc1.[I-] [Compound H18] | MITO and NUCLEOLI | 650 nm | 430 nm |  | 
C[n+]1c(C=Cc2ccc(-c3ccccc3)cc2)ccc2ccccc21.[I-] [Compound H17] | VESICLE; also recorded: NUCLEOLI | 650 nm | 430 nm | 540 nm | 420 nm
C[n+]1c(C=Cc2ccccc2Br)ccc2ccccc21.[I-] [Compound H3] | MITO | 640 nm | 530 nm |  | 
Cc1ccnc(-c2cc(/C=C/Cc3ccccc3)cc[n+]2C)c1.[I-] [Compound J1] | MITO | 620 nm | 450 nm |  | 
COc1ccc2c(ccc(/C=C/c3ccc4ccccc4c3)[n+]2C)c1.[I-] [Compound I33] | VESICLE and MITO and NUCLEI | 640 nm | 420 nm | 560 nm | 320-460 nm
Cc1cccc(C=Cc2cccc3ccccc23)[n+]1C.[I-] [Compound L32] | MITO | 520 nm | 400(broad) nm |  | 
COc1ccc(C=Cc2cc[n+](C)c3ccccc23)cc1OC.[I-] [Compound G11] |  | 600 nm | 420-480 nm |  | 
C[n+]1ccc(C=Cc2ccc(O)cc2)cc1Br.[I-] [Compound F16] |  | 510 nm | 410 nm |  | 
CN(C)c1ccc(C=CC=Cc2cccc[n+]2C)cc1.[I-] [Compound C37] |  | 680 nm | 520 nm |  | 
COc1ccc2c(ccc(C=Cc3ccc([N+](=O)[O-])cc3)[n+]2C)c1.[I-] [Compound I22] |  | 510 nm | 360 nm |  | 
COc1cc(C=Cc2ccc3ccccc3[n+]2C)cc(OC)c1OC.[I-] [Compound H13] |  | 590 nm | 420 nm |  | 
Cc1cccc(C=C/C=C/c2ccc(N(C)C)cc2)[n+]1C.[I-] [Compound L37] |  | 680 nm | 480 nm |  | 
C[n+]1ccc(C=Cc2ccccn2)cc1Br.[I-] [Compound F40] |  | 640 nm | 540 nm |  | 
CCc1ccc(/C=C/c2ccc(N(C)C)c3ccccc23)[n+](C)c1.[I-] [Compound E27] |  | 620 nm | 430 nm |  | 
C(=Cc1ccc(OCc2ccccc2)c(OCc2ccccc2)c1)c1cc[n+](C23CC4CC(CC(C4)C2)C3)cc1.[Br-] [Compound B12] |  | 530 nm | 340-444 nm |  | 
COc1ccccc1C=Cc1cc[n+](C23CC4CC(CC(C4)C2)C3)cc1.[Br-] [Compound B9] |  | 500 nm | 390 nm |  | 
Cc1ccnc(-c2cc(C=Cc3ccc(N(C)C)c4ccccc34)cc[n+]2C)c1.[I-] [Compound J27] |  | 670 nm | 460 nm |  | 

SMILES | LOCALIZATION [1] | EM(nm) ([2]; EX/EM peak no. 1) | EX(nm) ([2]; EX/EM peak no. 1) | EM(nm) ([2]; EX/EM peak no. 2) | EX(nm) ([2]; EX/EM peak no. 2)
Cc1ccccc1C=Cc1ccc2ccccc2[n+]1C.[I-] [Compound H7] |  | 650 nm | 420 nm |  | 
C[n+]1c(C=Cc2ccc3ccc4cccc5ccc2c3c45)ccc2ccccc21.[I-] [Compound H41] |  | 640 nm | 480 nm |  | 
C[n+]1ccc(/C=C/c2ccc3c(c2)OCO3)cc1Br.[I-] [Compound F39] |  | 540 nm | 400-420 nm |  | 
C[n+]1c(/C=C/c2ccccc2)ccc2ccccc21.[I-] [Compound H2] |  | 640 nm | 480(weak) nm |  | 
COc1ccc2c(ccc(C=Cc3ccccc3F)[n+]2C)c1.[I-] [Compound I29] |  | 580 nm |  |  | 
Cc1ccc(/C=C/c2ccc3ccccc3[n+]2C)cc1.[I-] [Compound H8] |  | 650 nm | 530 nm |  | 
COc1ccc(C=Cc2cc[n+](C34CC5CC(CC(C5)C3)C4)cc2)c2ccccc12.[Br-] [Compound B14] |  | 550 nm | 360-450 nm |  | 
COc1ccc(C=Cc2cc[n+](C)c(-c3cc(C)ccn3)c2)cc1OC.[I-] [Compound J11] |  | 560 nm | 420 nm |  | 
COc1ccc(C=Cc2ccc3ccccc3[n+]2C)cc1OC.[I-] [Compound H11] |  | 570 nm | 460 nm |  | 
COc1ccc2c(ccc(C=Cc3ccc4ccc5cccc6ccc3c4c56)[n+]2C)c1.[I-] [Compound I41] |  | 630 nm | 480 nm |  | 
COc1cc(OC)c(OC)cc1C=Cc1cccc(C)[n+]1C.[I-] [Compound L38] |  | 570 nm | 420 nm |  | 
COc1ccc2c(ccc(C=Cc3ccc(OC)c(OC)c3)[n+]2C)c1.[I-] [Compound I11] |  | 560 nm | 430 nm |  | 
CN(C)c1ccc(C=Cc2cc[n+](C)c(Br)c2)cc1.[I-] [Compound F19] |  | 610 nm | 440(broad) nm |  | 
COc1ccc(C=Cc2cc[n+](C)c(-c3cc(C)ccn3)c2)c2ccccc12.[I-] [Compound J14] |  | 580 nm | 420-480 nm |  | 
C[n+]1c(C=Cc2cccc(Br)c2)ccc2ccccc21.[I-] [Compound H4] |  | 640 nm | 530 nm |  | 
COc1ccc2c(ccc(C=Cc3c(OC)ccc4ccccc34)[n+]2C)c1.[I-] [Compound I23] |  | 550 nm | 340-360 nm |  | 
C[n+]1ccc(C=Cc2cccc3ccccc23)cc1Br.[I-] [Compound F32] |  | 530 nm | 410 nm |  | 
COc1cc(C=Cc2cc[n+](C)c(-c3cc(C)ccn3)c2)cc(OC)c1OC.[I-] [Compound J13] |  | 590 nm |  |  | 
CN(C)c1ccc(C=CC=Cc2cc[n+](C)cc2)cc1.[I-] [Compound A37] |  | 580 nm | 460-490 nm |  | 
C[n+]1ccc(C=Cc2ccc3c(c2)OCO3)cc1.[I-] [Compound A39] |  | 540 nm | 430 nm |  | 
C[n+]1ccc(C=Cc2ccc(F)cc2)cc1.[I-] [Compound A30] |  | 590 nm | 420-440 nm |  | 
C[n+]1ccc(C=Cc2ccc(Br)cc2)cc1.[I-] [Compound A5] |  | 540 nm | 375 nm |  | 
